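Following 48 hours of exposure in 96-well plates, responses at five concentrations were used to interpolate endpoints linearly. TGI: concentration producing complete growth inhibition.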
Tests used:
Assay in all cases: NCI-60 cell line screen, 48 h
COLO 205 colon = system: COLO 205 colon
T-47D breast = system: T-47D breast
HCT-15 colon = system: HCT-15 colon
NCI-H522 lung = system: NCI-H522 lung
OVCAR-8 ovarian = system: OVCAR-8 ovarian
M14 melanoma = system: M14 melanoma
A498 renal = system: A498 renal
KM12 colon = system: KM12 colon
UACC-62 melanoma = system: UACC-62 melanoma
MDA-N = system: MDA-N
DU-145 prostate = system: DU-145 prostate
SN12C renal = system: SN12C renal
UO-31 renal = system: UO-31 renal
SF-268 CNS = system: SF-268 CNS
U251 CNS = system: U251 CNS
NCI-H226 lung = system: NCI-H226 lung
SK-MEL-2 melanoma = system: SK-MEL-2 melanoma
NCI-H460 lung = system: NCI-H460 lung
UACC-257 melanoma = system: UACC-257 melanoma
SK-OV-3 ovarian = system: SK-OV-3 ovarian
OVCAR-4 ovarian = system: OVCAR-4 ovarian
EKVX NSCLC = system: EKVX NSCLC
MDA-MB-231 breast = system: MDA-MB-231 breast
CCRF-CEM leukemia = system: CCRF-CEM leukemia
HCT-116 colon = system: HCT-116 colon
786-0 renal = system: 786-0 renal
MCF7 breast = system: MCF7 breast
MDA-MB-435 = system: MDA-MB-435
SF-295 CNS = system: SF-295 CNS
MOLT-4 leukemia = system: MOLT-4 leukemia
SNB-75 CNS = system: SNB-75 CNS
TK-10 renal = system: TK-10 renal
A549 NSCLC = system: A549 NSCLC
HT29 colon = system: HT29 colon
MALME-3M melanoma = system: MALME-3M melanoma
CAKI-1 renal = system: CAKI-1 renal
HL-60(TB) leukemia = system: HL-60(TB) leukemia
SW-620 colon = system: SW-620 colon
HOP-62 NSCLC = system: HOP-62 NSCLC
PC-3 prostate = system: PC-3 prostate
OVCAR-5 ovarian = system: OVCAR-5 ovarian
RXF 393 renal = system: RXF 393 renal
NCI-H23 lung = system: NCI-H23 lung
SK-MEL-28 melanoma = system: SK-MEL-28 melanoma
BT-549 breast = system: BT-549 breast
HS 578T breast = system: HS 578T breast
SR leukemia = system: SR leukemia
ACHN renal = system: ACHN renal
NCI/ADR-RES ovarian = system: NCI/ADR-RES ovarian
IGROV1 ovarian = system: IGROV1 ovarian
SK-MEL-5 melanoma = system: SK-MEL-5 melanoma
HOP-92 NSCLC = system: HOP-92 NSCLC
SF-539 CNS = system: SF-539 CNS
OVCAR-3 ovarian = system: OVCAR-3 ovarian
LOX IMVI melanoma = system: LOX IMVI melanoma
RPMI-8226 leukemia = system: RPMI-8226 leukemia
K-562 leukemia = system: K-562 leukemia
SNB-19 CNS = system: SNB-19 CNS
HCC-2998 colon = system: HCC-2998 colon

Measured: TGI

Cc1ncc([N+](=O)[O-])n1CCNC(=O)CCC(=O)NCCCn1ccnc1[N+](=O)[O-]
> 100 µM: COLO 205 colon | T-47D breast | HCT-15 colon | NCI-H522 lung | OVCAR-8 ovarian | M14 melanoma | A498 renal | KM12 colon | UACC-62 melanoma | MDA-N | DU-145 prostate | SN12C renal | UO-31 renal | SF-268 CNS | U251 CNS | NCI-H226 lung | SK-MEL-2 melanoma | NCI-H460 lung | UACC-257 melanoma | SK-OV-3 ovarian | OVCAR-4 ovarian | EKVX NSCLC | MDA-MB-231 breast | CCRF-CEM leukemia | HCT-116 colon | 786-0 renal | MCF7 breast | MDA-MB-435 | SF-295 CNS | MOLT-4 leukemia | SNB-75 CNS | TK-10 renal | A549 NSCLC | HT29 colon | MALME-3M melanoma | CAKI-1 renal | HL-60(TB) leukemia | SW-620 colon | HOP-62 NSCLC | PC-3 prostate | OVCAR-5 ovarian | RXF 393 renal | NCI-H23 lung | SK-MEL-28 melanoma | BT-549 breast | HS 578T breast | SR leukemia | ACHN renal | NCI/ADR-RES ovarian | IGROV1 ovarian | SK-MEL-5 melanoma | HOP-92 NSCLC | SF-539 CNS | OVCAR-3 ovarian | LOX IMVI melanoma | RPMI-8226 leukemia | K-562 leukemia

CCOC(=O)CC1C(O)C(=O)N(C)C1c1ccccc1 (centres undefined)
> 100 µM: COLO 205 colon | T-47D breast | HCT-15 colon | NCI-H522 lung | OVCAR-8 ovarian | M14 melanoma | KM12 colon | UACC-62 melanoma | MDA-N | DU-145 prostate | SN12C renal | UO-31 renal | SF-268 CNS | U251 CNS | NCI-H226 lung | SK-MEL-2 melanoma | UACC-257 melanoma | SK-OV-3 ovarian | OVCAR-4 ovarian | EKVX NSCLC | MDA-MB-231 breast | CCRF-CEM leukemia | HCT-116 colon | 786-0 renal | MCF7 breast | MDA-MB-435 | SF-295 CNS | MOLT-4 leukemia | SNB-75 CNS | TK-10 renal | A549 NSCLC | HT29 colon | MALME-3M melanoma | CAKI-1 renal | HL-60(TB) leukemia | SW-620 colon | HOP-62 NSCLC | PC-3 prostate | OVCAR-5 ovarian | RXF 393 renal | SNB-19 CNS | NCI-H23 lung | SK-MEL-28 melanoma | BT-549 breast | HS 578T breast | SR leukemia | ACHN renal | NCI/ADR-RES ovarian | HCC-2998 colon | IGROV1 ovarian | SK-MEL-5 melanoma | HOP-92 NSCLC | SF-539 CNS | OVCAR-3 ovarian | LOX IMVI melanoma | RPMI-8226 leukemia | K-562 leukemia
